For 18 compounds, Efficacy, logP and chromatographic logP results are on record in patent US9540314B2, “N-cycloalkyl-N-[(cycloalkenylphenyl)methylene]-(thio) carboxamide derivatives” (BAYER INTELLECTUAL PROPERTY GMBH, priority 2012, dated 2017).

The test system of one series is Puccinia recondita. The experiment in a line: In vivo preventive test on Puccinia recondita (brown rust on wheat). To be noted: 500 ppm of active ingredient; wheat plants, preventive spray; grading 12 days after contamination. As for the experimental part:
(§1) The active ingredients tested are prepared by homogenization in a mixture of acetone/tween/DMSO, and then diluted with water to obtain the desired active material concentration.
(§2) Wheat plants (“Scipion” variety), sown in starter cups on a 50/50 peat soil pozzolana substrate and grown at 22° C., are treated at the 1 leaf stage (10 cm height) by spraying with the active ingredient prepared as described above. Plants, used as controls, are treated with the mixture of acetone/tween/DMSO/water not containing the active material.
After 24 hours, the plants are contaminated by spraying the leaves with an aqueous suspension of Puccinia recondita spores (100 000 spores per mL). The spores are collected from an infected plant and are suspended in water containing 2.5 mL/L of Tween 80 at 10%. The contaminated wheat plants are incubated for 24 hours at 20° C. and at 100% relative humidity, and then for 10 days at 20° C. and at 70-80% relative humidity.
(§3) Grading (% of efficacy) is carried out 12 days after the contamination, in comparison with the control plants.
Under these conditions, good (at least 70%) to total protection is observed at a dose of 500 ppm of active ingredient with the following compounds from table I: […]

For the next series, the system named is Sphaerotheca fuliginea. The experiment in a line: In vivo preventive test on Sphaerotheca fuliginea (powdery mildew on cucurbits). To be noted: 500 ppm, gherkin plants, grading 12 days after contamination. The method, then: (§4) The active ingredients tested are prepared by homogenization in a mixture of acetone/tween/DMSO and then diluted with water to obtain the desired active material concentration.
Gherkin plants (“Vert petit de Paris” variety), sown in starter cups on a 50/50 peat soil-pozzolana substrate and grown at 24° C., are treated at the Z11 cotyledon stage by spraying with the active ingredient prepared as described above. Plants, used as controls, are treated with the mixture of acetone/tween/DMSO/water not containing the active material.
After 24 hours, the plants are contaminated by spraying the cotyledons with an aqueous suspension of Sphaerotheca fuliginea spores (100 000 spores per mL). The spores are collected from infected plants. The contaminated gherkin plants are incubated at about 20° C. and at 70-80% relative humidity.
as §3
Under these conditions, good (at least 70%) to total protection is observed at a dose of 500 ppm of active ingredient with the following compounds from table A: […]

The next series deals with Septoria tritici. The experiment in a line: In vivo preventive test on Septoria tritici (wheat). Particulars: 500 ppm of active ingredient; wheat plants, preventive spray; grading 24 days after contamination. As for the experimental part:
as §1, §2
After 24 hours, the plants are contaminated by spraying the leaves with an aqueous suspension of cryopreserved Septoria tritici spores (500 000 spores per mL). The contaminated wheat plants are incubated for 72 hours at 18° C. and at 100% relative humidity, and then for 21 days at 90% relative humidity.
Grading (% of efficacy) is carried out 24 days after the contamination, in comparison with the control plants.
Under these conditions, good (at least 70%) to total protection is observed at a dose of 500 ppm of active ingredient with the following compounds from table J: […]

A short description of series [1]: log P by HPLC on a reversed-phase column (C 18), EEC Directive 79/831 Annex V.A8. Type of series: physicochemical. To be noted: Table 1, HPLC C 18, 40° C., 0.1% aqueous formic acid and acetonitrile, several values = mixture of 2 or more isomers; for chromatographic logP: reversed-phase HPLC column (C 18). As for the experimental part:
In table 1, the log P values were determined in accordance with EEC Directive 79/831 Annex V.A8 by HPLC (High Performance Liquid Chromatography) on a reversed-phase column (C 18), using the method described below:
Temperature: 40° C.; Mobile phases: 0.1% aqueous formic acid and acetonitrile; linear gradient from 10% acetonitrile to 90% acetonitrile.
Calibration was carried out using unbranched alkan-2-ones (comprising 3 to 16 carbon atoms) with known log P values (determination of the log P values by the retention times using linear interpolation between two successive alkanones). lambda-max-values were determined using UV-spectra from 200 nm to 400 nm and the peak values of the chromatographic signals.

The test system of the next series is Botrytis cinerea. The experiment in a line: In vivo preventive test on Botrytis cinerea (grey mould), gherkin plants. Particulars: 500 ppm of active ingredient, preventive spray, grading 4 to 5 days after contamination. As for the experimental part: as §4
Gherkin plants (“Vert petit de Paris” variety), sown in starter cups on a 50/50 peat soil pozzolana substrate and grown at 24° C., are treated at the Z11 cotyledon stage by spraying with the active ingredient prepared as described above. Plants, used as controls, are treated with the mixture of acetone/tween/DMSO/water not containing the active material.
After 24 hours, the plants are contaminated by spraying the cotyledons with an aqueous suspension of cryopreserved Botrytis cinerea spores (50 000 spores per mL). The spores are suspended in a nutrient solution composed of 10 g/L of PDB, 50 g/L of D-Fructose, 2 g/L of NH4NO3 and 1 g/L of KH2PO4. The contaminated gherkin plants are incubated at 17° C. and at 90% relative humidity.
Grading (% of efficacy) is carried out 4 to 5 days after the contamination, in comparison with the control plants.
Under these conditions, good (at least 70%) to total protection is observed at a dose of 500 ppm of active ingredient with the following compounds from table F: […]

The next series concerns Uromyces appendiculatus. As to the kind of experiment: In vivo preventive test on Uromyces appendiculatus (bean rust). Particulars: bean plants. As for the experimental part: as §1
After 24 hours, the plants are contaminated by spraying the leaves with an aqueous suspension of Uromyces appendiculatus spores (150 000 spores per mL). The spores are collected from infected plants and are suspended in water containing 2.5 mL/L of Tween 80 at 10%. The contaminated bean plants are incubated for 24 hours at 20° C. and at 100% relative humidity, and then for 10 days at 20° C. and at 70-80% relative humidity.
Grading (% of efficacy) is carried out 11 days after the contamination, in comparison with the control plants.

Another series relates to Pyrenophora teres. The experiment in a line: In vivo preventive test on Pyrenophora teres (barley). Particulars: barley plants, grading 14 days after contamination. The method, then:
as §1
Barley plants (“Plaisant” variety), sown in starter cups on a 50/50 peat soil pozzolana substrate and grown at 22° C., are treated at the 1 leaf stage (10 cm height) by spraying with the active ingredient prepared as described above. Plants, used as controls, are treated with the mixture of acetone/tween/DMSO/water not containing the active material.
After 24 hours, the plants are contaminated by spraying the leaves with an aqueous suspension of Pyrenophora teres spores (12 000 spores per mL). The spores are collected from a 12-day-old culture.
The contaminated barley plants are incubated for 48 hours at 20° C. and at 100% relative humidity, and then for 12 days at 20° C. at 70-80% relative humidity.
Grading (% of efficacy) is carried out 14 days after the contamination, in comparison with the control plants.
Under these conditions, good (at least 70%) to total protection is observed at a dose of 500 ppm of active ingredient with the following compounds from table H1: […]

Setting [2] is: 500 ppm of active ingredient, preventive spray, grading 11 days after contamination (table K1).
[3] abbreviates: dose 100 ppm, comparison with saturated analogues (table K2).
Setting [4] is: dose 500 ppm, comparison with saturated analogues (table K2).
Setting [5] is: 500 ppm of active ingredient, preventive spray.

As to `CC1CC=C(c2ccc(Cl)cc2CN(C(=O)c2c(C(F)F)nn(C)c2F)C2CC2)CC1` (racemic) [I.46], the Efficacy in the series with Puccinia recondita is reported as 75%; in the series with Sphaerotheca fuliginea, 100%; in the series with Septoria tritici it was 86%. The log partition coefficient (logP) in series [1] came out at 5.36.

On to `Cn1cc(C(=O)N(Cc2ccccc2C2=CCCC2)C2CC2)c(C(F)F)n1` [I.2], for which the Efficacy is reported as 94% in the series with Puccinia recondita; 94% in the series with Sphaerotheca fuliginea; 88% in the series on Septoria tritici; 100% with Botrytis cinerea; 100% in the series on Uromyces appendiculatus (setting [2]). For the same compound, the logP in series [1] was found to be 3.63.

Consider `Cn1nc(C(F)F)c(C(=O)N(Cc2ccccc2C2=CCCC2)C2CC2)c1F` [I.3], for which the Efficacy with Pyrenophora teres (Table H2, 100 ppm, preventive) came to 86%; in the series with Puccinia recondita, 98%; in the series on Sphaerotheca fuliginea, 100%; with Septoria tritici, 98%; in the series on Uromyces appendiculatus (setting [2]), 100%; with Uromyces appendiculatus (setting [3]), 99%. In the series with Uromyces appendiculatus (setting [4]), this compound gave an Efficacy of 100%. Further, the lipophilicity (logP) in series [1] is 4.06.

For `Cn1nc(C(F)F)c(C(=O)N(Cc2ccccc2C2=CCCC2)C2CC2)c1Cl` [I.4], the results for the Efficacy with Puccinia recondita, in the series with Botrytis cinerea and with Uromyces appendiculatus (setting [2]) were 100%, 77% and 99%, respectively. For the same compound, the logP in series [1] stood at 4.26.

Compound `Cn1nc(C(F)F)c(C(=O)N(Cc2cc(C3=CCCC3)ccc2C2=CCCC2)C2CC2)c1F` [I.18] had an Efficacy with Botrytis cinerea of 100%. In addition, the logP in series [1] came to 5.62.

Consider `CC(c1cc(F)ccc1C1=CCCC1)N(C(=O)c1c(C(F)F)nn(C)c1F)C1CC1` (stereo not shown) [I.25, N-{1-[2-(cyclopent-1-en-1-yl)-5-fluorophenyl]ethyl}-N-cyclopropyl-3-(difluoromethyl)-5-fluoro-1-methyl-1H-pyrazole-4-carboxamide], for which the Efficacy in the series on Pyrenophora teres (setting [5]), in the series with Sphaerotheca fuliginea, in the series on Septoria tritici and in the series with Botrytis cinerea was 100% in each case. The chromatographic logP in series [1] was determined as 4.34.

Consider `Cn1cc(C(=O)N(Cc2ccccc2C2=CCCCC2)C2CC2)c(C(F)F)n1` [I.27], for which the Efficacy stood at 88% with Puccinia recondita; 98% in the series on Sphaerotheca fuliginea; 94% in the series on Septoria tritici; 100% with Botrytis cinerea; 98% with Uromyces appendiculatus (setting [2]); 24% with Uromyces appendiculatus (setting [3]). The Efficacy in the series on Uromyces appendiculatus (setting [4]) stood at 98%. Also, the log partition coefficient (logP) in series [1] stood at 3.99.

On to `Cn1nc(C(F)F)c(C(=O)N(Cc2ccccc2C2=CCCCC2)C2CC2)c1F` [I.28], for which the Efficacy is listed as 79% in the series with Pyrenophora teres (setting [5]); 100% in the series with Puccinia recondita; 100% with Sphaerotheca fuliginea; 94% with Septoria tritici; 100% in the series on Botrytis cinerea; 100% in the series with Uromyces appendiculatus (setting [2]). Also, the Efficacy turned out to be 98% in the series with Uromyces appendiculatus (setting [3]) and 100% in the series with Uromyces appendiculatus (setting [4]). Also, the logP in series [1] amounted to 4.49.

For `Cn1cc(C(=O)N(Cc2ccccc2C2=CCCCC2)C2CC2)c(C(F)F)c1` [I.30], the Efficacy in the series with Sphaerotheca fuliginea came out at 83%; with Botrytis cinerea, 81%; in the series with Uromyces appendiculatus (setting [2]) it was 78%. For the same compound, the lipophilicity (logP) in series [1] worked out at 4.46.

Regarding `O=C(c1ccsc1I)N(Cc1ccccc1C1=CCCCC1)C1CC1` [I.31], in the series with Botrytis cinerea, the Efficacy amounted to 100%. Further, the log partition coefficient (logP) in series [1] worked out at 5.22.

On to `Cn1nc(C(F)F)c(C(=O)N(Cc2cc(C3=CCCCC3)ccc2Cl)C2CC2)c1F` [I.33], for which, in the series with Pyrenophora teres (Table H2, 100 ppm, preventive), the Efficacy is given as 86%. For the same compound, the logP in series [1] is given as 4.92.

`Cn1nc(C(F)F)c(C(=O)N(Cc2cc(C3=CCCCC3)ccc2Cl)C2CC2)c1Cl` [I.34]: the Efficacy in the series on Pyrenophora teres (Table H2, 100 ppm, preventive) came to 79%. In series [1], the logP turned out to be 5.14.

Consider `Cn1nc(C(F)F)c(C(=S)N(Cc2cc(Cl)ccc2C2=CCCCC2)C2CC2)c1F` [I.43], for which the Efficacy with Pyrenophora teres (setting [5]) came out at 71%; in the series with Puccinia recondita it was 78%; in the series with Sphaerotheca fuliginea, 80%; in the series on Septoria tritici, 97%; in the series on Uromyces appendiculatus (setting [2]), 89%. Moreover, the logP in series [1] was 5.56.

As for `Cn1nc(C(F)F)c(C(=O)N(Cc2cc(F)ccc2C2=CCCCC2)C2CC2)c1Cl` [I.44, 5-chloro-N-[2-(cyclohex-1-en-1-yl)-5-fluorobenzyl]-N-cyclopropyl-3-(difluoromethyl)-1-methyl-1H-pyrazole-4-carboxamide], the Efficacy with Puccinia recondita is listed as 81%; in the series on Septoria tritici, 79%. In series [1], the chromatographic logP turned out to be 4.69.

Turning to `Cn1cc(C(=O)N(Cc2ccccc2C2=CCCCCC2)C2CC2)c(C(F)F)n1` [I.49], the Efficacy was found to be 79% in the series with Pyrenophora teres (setting [5]); 81% in the series with Puccinia recondita; 100% with Sphaerotheca fuliginea; 88% in the series on Septoria tritici; 100% in the series on Botrytis cinerea; 99% in the series on Uromyces appendiculatus (setting [2]). In series [1], the logP is reported as 4.44.

Consider `Cn1cc(C(=O)N(Cc2ccccc2C2=CCCCCC2)C2CC2)c(C(F)F)c1` [I.50], for which the Efficacy came out at 81% in the series on Puccinia recondita; 100% in the series with Sphaerotheca fuliginea; 100% in the series with Septoria tritici; 98% in the series on Botrytis cinerea; 99% in the series with Uromyces appendiculatus (setting [2]). Besides, the logP in series [1] was determined as 4.93.

As for `Cn1nc(C(F)F)c(C(=O)N(Cc2ccccc2C2=CCCCCC2)C2CC2)c1Cl` [I.51], the Efficacy in the series with Puccinia recondita stood at 88%; with Sphaerotheca fuliginea it was 83%; in the series on Septoria tritici, 81%; in the series on Uromyces appendiculatus (setting [2]) it was 96%. For the same compound, the log partition coefficient (logP) in series [1] is 5.06.

In the case of `Cn1cc(C(=O)N(Cc2cc(Cl)ccc2C2=CCCCCC2)C2CC2)c(C(F)F)n1` [I.57], in the series on Pyrenophora teres (Table H2, 100 ppm, preventive), the Efficacy is recorded as 79%. In addition, in series [1], the logP came to 4.87.

What is called logP is the decadic logarithm of the partition coefficient of the neutral form, usually between octanol and water. For orientation: chromatographic logP means a lipophilicity value derived from retention on a column.
